Assay results: patent US10800792B2, “Inhibitors of Bruton's tyrosine kinase and method of their use” (JANSSEN PHARMACEUTICA NV, priority 2015, dated 2020)

Molecular target: unphosphorylated-BTK kinase domain (UP-BTK), GST-tagged human BTK (389-659aa) (Homo sapiens (Human), UniProt Q06187)
Experiment: BTK kinase Lanthascreen binding assay
Details: Lanthascreen tracer competition, 60 minutes incubation; pIC50 = negative log of the IC50 in molar
How it was run: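 Compound binding to the unphosphorylated kinase domain was monitored by displacement of a fluorescently labelled tracer in a Lanthascreen format. Potency is given as pIC50, the negative log of the molar IC50.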

Sequence of unphosphorylated-BTK kinase domain (UP-BTK), GST-tagged human BTK (389-659aa) (Q06187 389-659): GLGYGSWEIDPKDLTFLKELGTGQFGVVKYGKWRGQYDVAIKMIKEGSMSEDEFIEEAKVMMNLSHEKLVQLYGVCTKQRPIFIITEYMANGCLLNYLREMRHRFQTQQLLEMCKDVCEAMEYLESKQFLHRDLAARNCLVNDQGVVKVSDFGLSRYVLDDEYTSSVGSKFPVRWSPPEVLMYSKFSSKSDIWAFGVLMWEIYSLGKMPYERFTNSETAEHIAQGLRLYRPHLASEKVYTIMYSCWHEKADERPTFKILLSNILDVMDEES

| SMILES | BTK_I_binding pIC50 |
| --- | --- |
| CC(C)c1cccc(N2C(=O)Nc3c(C(=O)N[C@@H]4CCCNC4)sc4nccc2c34)c1 [Example 630, (R)-5-(3-Isopropylphenyl)-4-oxo-N-(piperidin-3-yl)-4,5-dihydro-3H-1-thia-3,5,8-triazaacenaphthylene-2-carboxamide] | 5.9 |
| C=CC(=O)N1CCC[C@@H](NC(=O)c2sc3nccc4c3c2NC(=O)N4c2cccc(C(C)(C)C)c2)C1 [Example 638, (R)—N-(1-Acryloylpiperidin-3-yl)-5-(3-(tert-butyl)phenyl)-4-oxo-4,5-dihydro-3H-1-thia-3,5,8-triazaacenaphthylene-2-carboxamide] | 5.7 |
| COc1ccccc1Oc1ccc(N2C(=O)Nc3c(C(=O)NC4CCCN(C(=O)/C(C#N)=C/C5CC5)C4)sc4nccc2c34)c(C)c1 (stereo not drawn) [Example 856, (E)-N-(1-(2-Cyano-3-cyclopropylacryloyl)piperidin-3-yl)-5-(4-(2-methoxyphenoxy)-2-methylphenyl)-4-oxo-4,5-dihydro-3H-1-thia-3,5,8-triazaacenaphthylene-2-carboxamide] | 7.5 |
| Cc1cc(Oc2ccccc2)ccc1N1C(=O)Nc2c(C(=O)N[C@@H]3CCCN(C(=O)/C=C/CN4CCCC4)C3)sc3nccc1c23 (single isomer, unassigned) [Example 845, (R,E)-5-(*S)-(2-Methyl-4-phenoxyphenyl)-4-oxo-N-(1-(4-(pyrrolidin-1-yl)but-2-enoyl)piperidin-3-yl)-4,5-dihydro-3H-1-thia-3,5,8-triazaacenaphthylene-2-carboxamide] | 7.6 |
| C=CC(=O)N1CCC[C@@H](NC(=O)c2sc3nccc4c3c2NC(=O)N4c2cc(C)nc(-c3ccccc3)c2)C1 [Example 734, (R)—N-(1-Acryloylpiperidin-3-yl)-5-(2-methyl-6-phenylpyridin-4-yl)-4-oxo-4,5-dihydro-3H-1-thia-3,5,8-triazaacenaphthylene-2-carboxamide] | <6 |

Same assay, conditions: pIC50 = negative log of the IC50 in molar; 60 minutes incubation, 50 nM Tracer 236

| SMILES | BTK_I_binding pIC50 |
| --- | --- |
| Cc1cc(OC2CC2)ccc1N1C(=O)Nc2c(C(=O)N[C@@H]3CCCN(C(=O)/C(C#N)=C/C4CC4)C3)sc3nccc1c23 [Example 185, (R,E)-N-(1-(2-Cyano-3-cyclopropylacryloyl)piperidin-3-yl)-5-(4-cyclopropoxy-2-methylphenyl)-4-oxo-4,5-dihydro-3H-1-thia-3,5,8-triazaacenaphthylene-2-carboxamide] | 7.5 |
| CO[C@@H]1CNC[C@H](NC(=O)c2sc3nccc4c3c2NC(=O)N4c2ccc(Oc3ccccc3)cc2C)C1 [Example 268, N-((3R,5S)-5-Methoxypiperidin-3-yl)-5-(2-methyl-4-phenoxyphenyl)-4-oxo-4,5-dihydro-3H-1-thia-3,5,8-triazaacenaphthylene-2-carboxamide] | 6.3 |
| C=CC(=O)N1CCC[C@@H](NC(=O)c2sc3nccc4c3c2NC(=O)N4c2ccc(Oc3ccccc3)cc2)C1 [Example 18, (R)—N-(1-Acryloylpiperidin-3-yl)-4-oxo-5-(4-phenoxyphenyl)-4,5-dihydro-3H-1-thia-3,5,8-triazaacenaphthylene-2-carboxamide] | 8.2 |
| Cc1cc(Oc2ccccc2)ccc1N1C(=O)Nc2c(C(=O)NC3CCCN(C(=O)/C=C/CNC(=O)CCCC(=O)NCCCOCCOCCOCCCNC(=O)CCCC[C@H]4SC[C@@H]5NC(=O)N[C@@H]54)C3)sc3nccc1c23 (stereo partly drawn) [Example 237, N^1-((E)-4-(3-(5-(2-methyl-4-phenoxyphenyl)-4-oxo-4,5-dihydro-3H-1-thia-3,5,8-triazaacenaphthylene-2-carboxamido)piperidin-1-yl)-4-oxobut-2-en-1-yl)-N5-(15-oxo-19-((3aS,4R,6aR)-2-oxohexahydro-1H-thieno[34-d]imidazol-4-yl)-4,7,10-trioxa-14-azanonadecyl)glutaramide] | 6.9 |
| Cc1cc(Oc2ccccc2)ccc1N1C(=O)Nc2c(C(=O)N[C@@H]3CCCN(C(=O)[C@@H]4CCOC4)C3)sc3nccc1c23 [Example 198, 5-(2-Methyl-4-phenoxyphenyl)-4-oxo-N—((R)-1-((R)-tetrahydrofuran-3-carbonyl)piperidin-3-yl)-4,5-dihydro-3H-1-thia-3,5,8-triazaacenaphthylene-2-carboxamide] | 7.0 |
| Cc1cc(Oc2ccccc2)ccc1N1C(=O)Nc2c(C(=O)N[C@@H]3CCCN(C(=O)/C(C#N)=C/C4(N)CC4)C3)sc3nccc1c23 [Example 196, (R,E)-N-(1-(3-(1-Aminocyclopropyl)-2-cyanoacryloyl)piperidin-3-yl)-5-(2-methyl-4-phenoxyphenyl)-4-oxo-4,5-dihydro-3H-1-thia-3,5,8-triazaacenaphthylene-2-carboxamide] | 6.8 |
| Cc1cc(Oc2ccccc2C(C)C)ccc1N1C(=O)Nc2c(C(=O)N[C@@H]3CCCN(C)C3)sc3nccc1c23 [Example 223, (R)-5-(4-(2-Isopropylphenoxy)-2-methylphenyl)-N-(1-methylpiperidin-3-yl)-4-oxo-4,5-dihydro-3H-1-thia-3,5,8-triazaacenaphthylene-2-carboxamide] | 6.6 |

Same assay, conditions: pIC50 = negative log of the IC50 in molar; 60 minutes incubation, 50 nM Tracer 236; read-out: BTK_I_binding pIC50 (converted)

| SMILES | IC50 [µM] |
| --- | --- |
| C=CC(=O)N1C[C@H](NC(=O)c2sc3nccc4c3c2NC(=O)N4c2ccc(Oc3ccccc3)cc2C)C[C@@H](OC)C1 [Example 8, N-((3R,5R)-1-Acryloyl-5-methoxypiperidin-3-yl)-5-(2-methyl-4-phenoxyphenyl)-4-oxo-4,5-dihydro-3H-1-thia-3,5,8-triazaacenaphthylene-2-carboxamide] | 0.0158 |
| Cc1cc(OC2CCCCC2)ccc1N1C(=O)Nc2c(C(=O)N[C@@H]3CCCN(C(=O)/C(C#N)=C/C4CC4)C3)sc3nccc1c23 [Example 178, (R,E)-N-(1-(2-Cyano-3-cyclopropylacryloyl)piperidin-3-yl)-5-(4-(cyclohexyloxy)-2-methylphenyl)-4-oxo-4,5-dihydro-3H-1-thia-3,5,8-triazaacenaphthylene-2-carboxamide] | 0.1 |

Same assay, conditions: unphosphorylated-BTK kinase domain, 50 nM Tracer 236, 60 minutes; pIC50 = negative log of the IC50 in molar

| SMILES | BTK_I_binding pIC50 |
| --- | --- |
| O=C(N[C@@H]1CCCNC1)c1sc2nccc3c2c1NC(=O)N3c1ccc(Cl)c(Cl)c1 [Example 346, (R)-5-(3,4-Dichlorophenyl)-4-oxo-N-(piperidin-3-yl)-4,5-dihydro-3H-1-thia-3,5,8-triazaacenaphthylene-2-carboxamide] | <5 |
| Cc1cc(Oc2ccccc2OC(C)C)ccc1N1C(=O)Nc2c(C(=O)N[C@@H]3CCCN(C)C3)sc3nccc1c23 [Example 283, (R)-5-(4-(2-Isopropoxyphenoxy)-2-methylphenyl)-N-(1-methylpiperidin-3-yl)-4-oxo-4,5-dihydro-3H-1-thia-3,5,8-triazaacenaphthylene-2-carboxamide] | 6.2 |
| Cc1cnc2sc(C(=O)N[C@@H]3CCCNC3)c3c2c1N(c1ccc(Oc2ccccc2)cc1)C(=O)N3 [Example 328, (R)-6-Methyl-4-oxo-5-(4-phenoxyphenyl)-N-(piperidin-3-yl)-4,5-dihydro-3H-1-thia-3,5,8-triazaacenaphthylene-2-carboxamide] | 5.7 |
| COCC(=O)N1CCC[C@@H](NC(=O)c2sc3nccc4c3c2NC(=O)N4c2ccc(Oc3ccccc3)cc2C)C1 (single isomer, unassigned) [Example 495, (R)—N-(1-(2-Methoxyacetyl)piperidin-3-yl)-5-(*S)-(2-methyl-4-phenoxyphenyl)-4-oxo-4,5-dihydro-3H-1-thia-3,5,8-triazaacenaphthylene-2-carboxamide] | 7.5 |
| C/C=C/C(=O)N1CCC[C@@H](NC(=O)c2sc3nccc4c3c2NC(=O)N4c2ccc(Oc3ccccc3)cc2C)C1 (single isomer, unassigned) [Example 473, (R,*E)-N-(1-(But-2-enoyl)piperidin-3-yl)-5-(*S)-(2-methyl-4-phenoxyphenyl)-4-oxo-4,5-dihydro-3H-1-thia-3,5,8-triazaacenaphthylene-2-carboxamide] | 5.9 |
| Cc1cc(Oc2ccccc2)ccc1N1C(=O)Nc2c(C(=O)N[C@@H]3CCN(C(=O)/C=C/CO)C3)sc3nccc1c23 (single isomer, unassigned) [Example 522, (R,E)-N-(1-(4-Hydroxybut-2-enoyl)pyrrolidin-3-yl)-5-(*S)-(2-methyl-4-phenoxyphenyl)-4-oxo-4,5-dihydro-3H-1-thia-3,5,8-triazaacenaphthylene-2-carboxamide] | 8.0 |
| Cc1ccc(N2C(=O)Nc3c(C(=O)N[C@@H]4CCCNC4)sc4nccc2c34)cc1C(F)(F)F [Example 461, (R)-5-(4-Methyl-3-(trifluoromethyl)phenyl)-4-oxo-N-(piperidin-3-yl)-4,5-dihydro-3H-1-thia-3,5,8-triazaacenaphthylene-2-carboxamide] | 5.0 |
| CN1CC[C@@H](NC(=O)c2sc3nccc4c3c2NC(=O)N4c2cccc(-c3ccccc3)c2)C1 [Example 587, (R)-5-([1,1′-Biphenyl]-3-yl)-N-(1-methylpyrrolidin-3-yl)-4-oxo-4,5-dihydro-3H-1-thia-3,5,8-triazaacenaphthylene-2-carboxamide] | 6.5 |

Same assay, conditions: unphosphorylated-BTK kinase domain, 50 nM Tracer 236, 60 minutes; pIC50 = negative log of the IC50 in molar; read-out: BTK_I_binding pIC50 (converted)

| SMILES | IC50 [µM] |
| --- | --- |
| O=C(N[C@H]1CNC[C@H](O)C1)c1sc2nccc3c2c1NC(=O)N3c1ccc(Oc2ccccc2)cc1 [Example 586, N-((3R,5R)-5-Hydroxypiperidin-3-yl)-4-oxo-5-(4-phenoxyphenyl)-4,5-dihydro-3H-1-thia-3,5,8-triazaacenaphthylene-2-carboxamide] | 0.251 |

Same assay, conditions: unphosphorylated-BTK kinase domain, 60 minutes incubation, 50 nM Tracer 236; pIC50 = negative log of the IC50 in molar

| SMILES | BTK_I_binding pIC50 |
| --- | --- |
| CNCC(=O)N1CCC[C@@H](NC(=O)c2sc3nccc4c3c2NC(=O)N4c2ccc(OC(C)C)cc2C)C1 [Example 923, (R)-5-(4-Isopropoxy-2-methylphenyl)-N-(1-(2-(methylamino)acetyl)piperidin-3-yl)-4-oxo-4,5-dihydro-3H-1-thia-3,5,8-triazaacenaphthylene-2-carboxamide] | 6.3 |
